Where two headings read alike, the source gives them in different places.
Legend:
[1] = rhesus monkeys, 10 mg/kg p.o.
rhesus monkeys [2] = assay: Monkey Delayed Match to Sample (DMS) task; assay type: in vivo; details: 10 mg/kg p.o., versus vehicle
Excerpt: All cognition testing occurred in the animal’s home cage equipped with a touchscreen. Each DMS trial was initiated with a single ‘sample’ image (150 × 200 pixels: 1.8 inches × 2.3 inches) in one of eight colors presented at the center of a touchscreen. Evaluation began when the monkey touched the sample image, at which point the screen became blank for a retention period. Following the retention period, four choice images (150 × 200 pixels) were presented, one in each corner of the screen. One of the four choice images matched the color of the sample image, whereas the three remaining ‘distractor’ images were drawn from the pool of remaining colors. A reinforcer was provided when the monkey touched the choice image that matched the color of the sample image. […] Test sessions comprised 96 trials or lasted for up to 45 min. […] Response latencies to sample and choice images were also recorded. Values reported reflect the proportion of correct responses collapsed over all retention intervals. Differences from vehicle were examined using repeated measures ANOVA.

rhesus monkeys [3] = assay: Rhesus monkey polysomnography (active wake); assay type: in vivo; details: for Active wake late in the inactive phase and next morning (residual sleep effect): 10 mg/kg p.o. 2 h before lights out, 10 mg/kg
Experimental: Animals were fed on a calorie-controlled diet of laboratory chow supplemented with fruit and vegetables. Water was available ad libitum with the exception of those monkeys trained to perform cognitive tasks, for which access was restricted for up to 4 h prior to and during cognitive testing. Treatment occurred at 14:40 (Zeitgeber time [ZT] 10:10) in a balanced 1-day cross-over design: 1 day of drug or vehicle followed by 6 days of baseline followed by 1 day of vehicle or drug. Cognition tasks were scheduled for next-day evaluation as described below. Sleep/wake architecture was scored according to vigilance state (active wake, quiet wake, delta sleep I, delta sleep II, and REM sleep) at 30-minute intervals and analyzed as previously described. Spectral analysis of continuous EEG was quantified between vehicle and compound after binning continuous frequencies into canonical frequency bands (reported herein: Delta, 0.5 – 4 Hz; Theta, 4.0 – 7 Hz; Gamma, 35.0 – 100.0 Hz). qEEG values are spectral power (uV2) log transformed before analysis and averaged over 30-minute intervals, expressed as means +/− SEM, and compared with vehicle using a mixed-model ANOVA at each time point with random effects for subject and date within subject in the R statistical computing environment (cran.us.r-project.org; the R Foundation for Statistical Computing, Vienna, Austria) using a linear mixed effects model for significance testing.

rhesus monkeys [4] = assay: Monkey Serial Choice Reaction Time (SCRT) task; assay type: in vivo; details: 10 mg/kg p.o.; for Next-day attention (SCRT, correct responses to shortest cues), 16 h after dosing: versus vehicle, 10 mg/kg
Excerpt: Each SCRT trial was initiated with the appearance of 10 blue square ‘target’ images evenly distributed at 3-inch intervals around the perimeter of a touchscreen presented together with a centrally located circular ‘centering’ image (1.4 inch diameter circle). The task began with the monkey touching the centering image, which then turned gray. The monkey was then required to touch the centering image continuously throughout a variable pre-cue interval of 0.25-7.5 s. On completion of the pre-cue interval, one of the blue target images was cued by turning red for one of four cue durations before turning back to blue. To obtain a reward, the monkey was required to touch the target image that had been ‘cued’ red within a 5 s limited hold period. […] On completion of the trial, an inter-trial interval of 2 s was initiated prior to the next trial. […] If the monkey initiated a trial but removed its hand from the touchscreen prior to the appearance of the cue, the trial was terminated and the screen was blanked during a 2 s inter-trial interval. Sessions were terminated after 20 min. Cue location and duration were pseudo-randomly assigned. Cue duration and the target size were titrated for each subject on the basis of performance during previous baseline sessions to yield a performance of 60–80% correct responses for the trials of the shortest cue duration. The briefest cue duration varied from 0.04–0.1 s and the cues varied in size from 0.2–0.7 inches, although each cue had the same touch-sensitive area of 1.75 inches. Values reported in the current study reflect the proportion of correct responses to targets after cues of the shortest duration only.

rhesus monkeys [5] = system: rhesus monkeys; set-up: method as in PMID 23552372; details: 10 mg/kg, active-phase dosing, quantified over 2 h; cited from earlier work
rhesus monkeys [6] = details: sleep-promoting doses; cited from earlier work
in vivo = details: rhesus monkey, po, 10 mg/kg
OX2R [7] = molecular target: T1, OX2R (Homo sapiens, UniProt O43614); details: free + bound; cited from earlier work
T1 sequence (O43614 1-444): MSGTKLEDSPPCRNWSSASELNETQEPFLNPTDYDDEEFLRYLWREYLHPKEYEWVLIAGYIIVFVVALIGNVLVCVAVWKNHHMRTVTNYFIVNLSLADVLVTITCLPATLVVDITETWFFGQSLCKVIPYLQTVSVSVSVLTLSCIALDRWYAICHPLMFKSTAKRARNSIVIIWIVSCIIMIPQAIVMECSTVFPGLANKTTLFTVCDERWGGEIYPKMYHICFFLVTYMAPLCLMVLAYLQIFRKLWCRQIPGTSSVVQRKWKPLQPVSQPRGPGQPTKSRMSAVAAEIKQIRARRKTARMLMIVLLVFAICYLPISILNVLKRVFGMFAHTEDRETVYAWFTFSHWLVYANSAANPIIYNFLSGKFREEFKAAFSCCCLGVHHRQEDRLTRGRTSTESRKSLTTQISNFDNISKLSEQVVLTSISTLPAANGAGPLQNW

OX2R [8] = molecular target: T1, OX2R; assay: Human plasma concentration calculated for a given OX2R occupancy (from transgenic rat occupancy, free-fraction normalized); assay type: in vivo; details: free + bound; normalized for free fraction (rat 1.4%, human 1.0%)
[9] = Free plasma fraction, human
[10] = Unbound (free) plasma fraction, rat
OX2R [11] = molecular target: T1, OX2R; assay: OX2R occupancy, ex vivo radioligand-binding displacement in transgenic rats expressing human OX2R; set-up: from tissue; host or cells: brain homogenate of transgenic rats expressing hOX2R under the rat enolase promoter; species or system transgenic rat; details: rats, calculated from plasma value on normalized occupancy curve
Excerpt: Frozen tissue was weighed and thawed coincident with homogenization.

dogs = details: cited from earlier work
[12] = Plasma and CSF compound levels in satellite rats; details: rats
Experimental: Separately, the relationship between OX2R occupancy relative to plasma exposure was determined by administering DORA-12 intravenously (i.v.) over a range of doses to transgenic rats expressing human OX2R to determine a full occupancy curve over a wide range of plasma concentrations in order to define the maximal occupancy against which raw occupancy values could be normalized. This relationship was then used to determine the OX2R occupancy in PSG experiments from measured plasma concentrations.
Occupancy of human OX2R in transgenic rats expressing the receptor via the rat enolase promoter was performed ex vivo in radioligand-binding-displacement assays essentially as previously described with minor modifications. To determine the relationship between OX2R occupancy for a given compound over a full range of plasma and CSF concentrations, hOX2R-expressing rats were dosed i.v. with compound. Immediately following 30 min of i.v. administration, animals were anesthetized, sacrificed, and CSF, blood, and brain tissue were harvested and frozen for analysis. Frozen tissue was weighed and thawed coincident with homogenization. The homogenate was pelleted at 21,000 × g for 1 min and the pellet was resuspended. […] Non-specific binding was determined by the addition of 1000-fold excess unlabeled ligand. Experimental (dosed)-specific binding was compared with control (vehicle-dosed) binding ([specific total counts minus specific experimental counts]/specific total counts × 100 = percent occupancy). Raw occupancy values determined in this manner over a range of plasma and CSF values were then used to construct a normalized curve where the theoretical maximum occupancy value was defined as 100% and occupancies relative to plasma or CSF values were fit to a […] (hyperbola) curve (GraphPad Prism, San Diego, CA, USA). […] In separate experiments, plasma, CSF, and brain tissue was collected at time points following dosing to directly measure compound levels and corresponding OX2R occupancies at these times. Resulting occupancy relative to measured plasma levels of compound was fit to a normalized binding curve as described previously.

[13] = Suvorexant plasma levels in humans (Phase 1)
[14] = Suvorexant plasma levels in satellite dogs; details: 1 or 3 mg/kg p.o.
Orexin 2 receptor = molecular target: T2, Orexin 2 receptor (Homo sapiens, UniProt O43614); assay: Orexin 2 receptor binding kinetics
T2 sequence (O43614 1-444): T1 sequence (O43614 1-444)

[15] = Unbound (free) plasma fraction, dog

**Q.** With `CN1CCN(C(=O)O[C@H]2c3nccnc3C(=O)N2c2ccc(Cl)cn2)CC1` [Eszopiclone] as the compound, how does the “Time of plasma Cmax” value [1] read?
**A.** The value was 0.5 h.

**Q.** And the “Next-day recognition memory (DMS), 14 h after dosing” value (rhesus monkeys [2])?
**A.** The value was “did not demonstrate next-day sleep effects or memory impairment”.

**Q.** And the “Next-day recognition memory (DMS), 14 h after dosing” value (rhesus monkeys [2]; listed as eszopiclone)?
**A.** Its value is “not”.

**Q.** And the “Time for which reductions in active wake were detectable” value (rhesus monkeys [3]; 10 mg/kg p.o.)?
**A.** Its value is “up to 6 h”.

**Q.** What about the “Active wake late in the inactive phase and next morning (residual sleep effect)” value (rhesus monkeys [3]) of the same compound?
**A.** The value was “did not demonstrate next-day sleep effects”.

**Q.** And the “Active wake late in the inactive phase and next morning (residual sleep effect)” value (rhesus monkeys [3]; listed as eszopiclone)?
**A.** The value was “no consistent attenuation of active wake”.

**Q.** What about the “Time for which effects on attention were observed” value (rhesus monkeys [4]) of the same compound?
**A.** The value was “up to 16 h”.

**Q.** And the “Next-day attention (SCRT, correct responses to shortest cues), 16 h after dosing” value (rhesus monkeys [4])?
**A.** Its value is “significantly impair attention”.

**Q.** And the “Next-day attention (SCRT, correct responses to shortest cues), 16 h after dosing” value (rhesus monkeys [4]; listed as eszopiclone)?
**A.** The value was “significant deficits”.

**Q.** And the “Attenuation of active wake relative to vehicle” value (rhesus monkeys [5])?
**A.** The value was 55.0 min.

**Q.** And the “Cognitive assessment in DMS and SCRT tasks within 2 h following treatment” value (rhesus monkeys [6])?
**A.** The value was “substantial deficits”.

**Q.** What about the Cmax (in vivo) of the same compound?
**A.** Its Cmax is 1680 nM.

**Q.** What about the concentration at 17 h (in vivo) of the same compound?
**A.** Its concentration at 17 h is 535 nM.

**Q.** What does the source list for `Cc1ccc(-n2nccn2)c(C(=O)N2CCN(c3nc4cc(Cl)ccc4o3)CC[C@H]2C)c1` [Suvorexant, [(7R)-4-(5-chloro-1,3-benzoxazol-2-yl)-7-methyl-1,4-diazepan-1-yl][5-methyl-2-(2H-1,2,3-triazol-2-yl)phenyl]methanone]?
**A.** Plasma level calculated to correspond to 80% OX2R occupancy in humans (OX2R [7]): 0.71 µM; Human plasma concentration calculated to correspond to 65% OX2R occupancy (OX2R [8]): 0.33 µM; fraction unbound [9]: 0.01; fraction unbound [10]: 0.014; OX2R Occ (% max) (OX2R [11]; dose 10 mg/kg): 92.6 % max; OX2R Occ (% max) (OX2R [11]; dose 30 mg/kg): 94.3 % max; OX2R Occ (% max) (OX2R [11]; dose 100 mg/kg): 97.6 % max; Duration of effects on active wake (dogs; 1 mg/kg): up to 4 h; Duration of effects on active wake (dogs; 3 mg/kg): up to 7.5 h; Plasma ([12]; dose 10 mg/kg): 1600.0 nM; Plasma ([12]; dose 30 mg/kg): 2100.0 nM; Plasma ([12]; dose 100 mg/kg): 5100.0 nM; Tmax ([13]; human, in vivo): ≤ 3 h; half-life ([13]; human, in vivo): > 8 h; Post-dose time by which mean plasma concentrations fell below level for 65% OX2R occupancy ([13]; humans, 10 and 20 mg doses): ≤ 8 h; Plasma concentration at time points when efficacy was observed [14]: > 342 nM; Plasma exposure corresponding to efficacy [14]: > 342 nM; T1/2 OFF (half-life off-rates) (Orexin 2 receptor): 1.49 h; T1/2 ON (binding half-life) (Orexin 2 receptor; almorexant applied 3-fold above its Kd (value an underestimate)): 1.34 h; fraction unbound [15]: 0.01

Source: article PMC3765993, “The duration of sleep promoting efficacy by dual orexin receptor antagonists is dependent upon receptor occupancy threshold” (BMC Neuroscience, 2013)
